Experimental data from patent US12268727B2, “Bioactive polypeptides for improvements in plant protection, growth and productivity” (priority 2017, dated 2025).

Assays:
Assay type in all cases: in vivo
[1] = tested on: Cercospora kikuchii; assay: Cercospora leaf blight severity, field trials in Paraguay; conditions: two foliar applications from R1, 150 and 300 mL/Ha
Description: FOX is a commercially available foliar fungicide in South America with limited efficacy for preventative and curative treatment of Asian soybean rust caused by Phakopsora pachyrhizi and Cercospora leaf blight of soybean caused by Cercospora kikuchii applied as a foliar spray following the recommendations on the specimen label at a use rate of 5.48 fluid ounces per acre (Fl. oz/Ac) (400 mL/hectare). Beginning at the R1 stage of development, soybean plants received two foliar applications of the compositions described in Table 90 with an interval of 13-14 days between spray applications. […] Disease assessments for trials that were naturally infected were scored for the severity of infection (0-100% of foliage affected) were scored for 10 plants within each plot for both Asian soybean rust caused by Phakopsora pachyrhizi and Cercospora leaf blight of soybean caused by Cercospora kikuchii at the R4-R5 stage of soy development (4-15 days after second foliar application) with guidance from Godoy et al (1997; Journal of plant diseases and protection 104:336-345). Percent phytotoxicity (0-100% of foliage affected) was also scored at the R4-R5 stage of soy development. […] Standard deviation for each treatment between the three sites was calculated. […]

[2] = tested on: squash; assay: Foliar application to squash, yield; conditions: Crookneck squash; for change in fruit weight vs surfactant only control / increase in weight of harvested squash fruit per plant: Bt.4Q7Flg22 2.0 Fl. oz/Ac, Gm.RHPP 3.2 Fl. oz/Ac
Description: Formulation 2 (F2) consists of the D RI Bt.4Q7 Flg22 applied with 0.01% (wv) non-ionic surfactant. […] Yield comparisons were made between the plants treated with the foliar Bt.4Q7Flg22 F1 and F2 spray applications compared to the control (water) or non-treated squash plants. Squash plants were cultivated in sandy loam soil as follows. 2.5 cm holes were cut in 2.5 ft. (0.76 m) wide plastic covered mounds, two rows per mound, holes spaced 1.5 ft (0.46 m) apart within each row. Rows were staggered within the mound. Mounds were spaced 4 ft (1.2 m) apart. Three squash seeds were planted per hole and thinned to a single plant per hole 14 days after planting. Drip irrigation tubing was laid in the center of each mound, and plants were watered as necessary.
Squash plants were grown from seed in raised beds until bloom, and foliar treated in the same Florida (FL) location using two replicated trials or two separate harvests. Yield for the foliar Bt.4Q7Flg22 applied F1 and F2 treated plants is reported as the number of squash per plant, the weight (grams) per squash and the total squash yield (lbs/Ac) and represented as a percentage change as compared to non-treated control plants (Table 31).
Yield comparisons were made between the plants treated with the polypeptides compared to surfactant only control plants, with three replicates per treatment. […] Replicates with average yield per plant 50% above or 50% below the median yield for the trial were excluded as outliers.
Squash plants were cultivated in sandy loam soil as follows. 2.5 cm holes were cut in 0.76 meters wide plastic covered mounds, two rows per mound, holes spaced 0.46 meters apart within each row. Rows were staggered within the mound. Mounds were spaced 1.2 meters apart. Three squash seeds were planted per hole and thinned to a single plant per hole 14 days after planting. Drip irrigation tubing was laid in the center of each mound, and plants were watered as necessary.

[3] = tested on: soybean; assay: Foliar application to soybean, field yield trials; conditions: for average yield change vs non-treated control: Flg22 polypeptides 0.33 Fl. oz/Ac, RHPP 4 Fl. oz/Ac
[4] = foliar at R2, 7 US Midwest locations, use rate 0.33 Fl. oz/Ac
[5] = foliar at R2, 7 US Midwest locations, use rate 4.0 Fl. oz/Ac
[6] = foliar at R2, 7 US Midwest locations, use rate 8.0 Fl. oz/Ac
[7] = foliar at R2, AG3536, 7 US Midwest locations, use rate 0.33 Fl. oz/Ac
[8] = foliar at R2, average of AG3536 and AG3832, use rate RHPP 4.0, N-RAGE MAX 128 Fl. oz/Ac

Substance: Bt.4Q7Flg22: Flg22 polypeptide (22 amino acids) from flagellin of Bacillus thuringiensis strain 4Q7 (DRLSSGKRINSASDDAAGLAIA; listed as Bacillus thuringiensis)
- less Cercospora leaf area damage than untreated control [1]: 2.8-3.5%
- change in fruit weight vs surfactant only control [2]: 4.4%
- increase in weight of harvested squash fruit per plant [2]: 31.7 grams
- win rate ([3]; R2 foliar 0.33 Fl. oz/Ac, 11 locations): 64%
- yield advantage ([3]; R2 foliar, 8 Fl. oz/Ac, 11 sites): 0.88 Bu/Ac
- average yield change vs non-treated control ([3]; R2 foliar, 11 locations): −0.1 Bu/Ac
- Average Bu/Ac Increase compared to Control Variety 1 and 2 [3, 4]: +0.45 Bu/Ac
- Average Total Yield Bu/Ac Variety 1 and 2 [3, 4]: 61.02 Bu/Ac
- Average Bu/Ac Increase compared to Control Variety 1 and 2 [3, 5]: +0.33 Bu/Ac
- Average Total Yield Bu/Ac Variety 1 and 2 [3, 5]: 60.90 Bu/Ac
- Average Bu/Ac Increase compared to Control Variety 1 and 2 [3, 6]: +0.88 Bu/Ac
- Average Total Yield Bu/Ac Variety 1 and 2 [3, 6]: 61.45 Bu/Ac
- Average Total Yield Bu/Ac Variety 2 [3, 7]: 61.61 Bu/Ac
- Average Total Yield Bu/Ac Variety 2 ([3]; foliar at R2, AG3536, 7 US Midwest locations, use rate 4.0 Fl. oz/Ac): 64.19 Bu/Ac
- Average Total Yield Bu/Ac Variety 2 ([3]; foliar at R2, AG3536, 7 US Midwest locations, use rate 8.0 Fl. oz/Ac): 63.86 Bu/Ac

Substance: GGIRAAPTGNER (Glycine max) [RHPP, Root Hair Promoting Peptide from Glycine max]
- less Cercospora leaf area damage than untreated control [1]: 3.3-4.5%
- Average squash fruit weight (grams) per plant ([2]; foliar at first bloom, Bt.4Q7Flg22 16.7 μM 2 fl oz/Ac, Gm.RHPP 100 μM 3.2 fl oz/Ac, two harvests): 748.4 grams
- Percentage Change in Fruit Weight Compared to Surfactant only control ([2]; foliar at first bloom, Bt.4Q7Flg22 2 fl oz/Ac, Gm.RHPP 3.2 fl oz/Ac): +4.4%
- change in fruit weight vs surfactant only control [2]: 4.4%
- increase in weight of harvested squash fruit per plant [2]: 31.7 grams
- yield advantage on top of foliar fertilizer ([3]; 8 fl oz/Ac with foliar fertilizer, 11 sites): 1 Bu/AC
- yield increase over non-treated control ([3]; R2 foliar, 2 varieties, 7 locations, RHPP alone 4.0 Fl. oz/Ac): 1.26 Bu/Ac
- yield advantage ([3]; R2 foliar, 4 Fl. oz/Ac, 11 sites): 0.31 Bu/Ac
- average yield change vs non-treated control ([3]; R2 foliar, 11 locations): 1.2 Bu/Ac
- yield increase compared to fertilizer alone ([3]; RHPP 1 Fl. oz/Ac (300 nM) with N-RAGE MAX, R2, variety AG3536, 5 locations): 1.4 Bu/Ac
- Average Bu/Ac Increase compared to Control Variety 1 and 2 [3, 4]: +0.35 Bu/Ac
- Average Total Yield Bu/Ac Variety 1 and 2 [3, 4]: 60.92 Bu/Ac
- Average Total Yield Bu/Ac Variety 2 [3, 7]: 62.44 Bu/Ac
- Average Bu/Ac Change compared to Control Variety 1 and 2 [3, 8]: +0.9 Bu/Ac
- Average Total Yield Bu/Ac Variety 1 and 2 [3, 8]: 63.23 Bu/Ac
- Average Total Yield Bu/Ac Variety 1 ([3]; foliar at R2, variety 1 (AG3536), 5 US Midwest locations, use rate RHPP 4.0, N-RAGE MAX 128 Fl. oz/Ac): 65.42 Bu/Ac
- Average Total Yield Bu/Ac Variety 2 ([3]; foliar at R2, variety 2 (AG3832), 5 US Midwest locations, use rate RHPP 4.0, N-RAGE MAX 128 Fl. oz/Ac): 61.04 Bu/Ac
